In PMC3480435, “Identification, Expression and Activity Analyses of Five Novel Duck Beta-Defensins” (PLoS ONE, 2012):

Assays:
[1] = tested on: 12 bacteria (four Gram-positive and eight Gram-negative strains); details: colony counting, 10-100 µg/mL in PBS, 3 h preincubation then 12-18 h; % of CFU of unexposed bacteria; mean of three independent experiments, three replicates each; Fig. 3
Method: The antimicrobial activities of both rAvBD and sAvBD were determined by colony counting assay. Briefly, a 10 µL of diluted bacterial culture (diluted 1000-fold in the appropriate medium) was treated with 250 µL of rAvBD or sAvBD (0 to 100 µg/mL in PBS) in polypropylene microtiter plates and preincubated for 3 h at conditions suited to the investigated strain; 100 µL of minimal medium was added after 3 h and the plates were incubated for 12–18 h further. Then, the sample was rediluted 100-to-10^6-fold in minimal medium, transferred to TSA plates and colonies were counted after 24 h of incubation. Bactericidal activity was calculated as a percentage of CFU of bacteria not exposed to antimicrobial peptides but subjected to the same experimental conditions. Results from the antimicrobial assay represent the mean of the three independent experiments, with three replicates per experiment.

[2] = tested on: DHV-1 strain Du/CH/LBJ/090809; details: DHV-1 serially diluted, treated with equal volume of 300 µg/mL protein in PBS, 37°C 60 min; 11-day-old SPF duck embryos, observed 7 days; three independent experiments, five replicates
Method: Briefly, the DHV-1 (10^8 median embryo infectious doses, EID50) was serially diluted 10-fold and treated with equal volumes of GST or rAvBDs (300 µg/mL in PBS) at 37°C for 60 min. The mixture was inoculated into 11-day-old specific pathogen free (SPF) duck embryos, with 200 µL administered per duck. The inoculated duck embryos were incubated at 37°C and observed for 7 days. Mortality was recorded every 8 h. […] All antiviral activity assays were performed in three independent experiments, with five replicates per experiment.

glutathione-S-transferase [GST]
bactericidal activity against all of the bacterial strains investigated [1]: no bactericidal activity
survival time of duck embryos inoculated with treated DHV [2]: little effect
